Measurements: US20080045609A1, “METHODS AND THERAPEUTICS TO FACILITATE LIVER REPAIR” (priority 2006, published 2008)

Legend:
NASH = assay: clinical trial in patients with moderately severe NASH; assay type: in vivo, human; settings: subcutaneous delivery, monotherapy
Experimental: The dosage and delivery mechanism for relaxin H2 is subcutaneous delivery of the molecule based on the earlier reports for the scleroderma trial. […] The dosage of relaxin H2 in the present trial is the most efficacious level that was used in the earlier reported scleroderma trial, a subcutaneous relaxin infusion rate of 25 μg/kg/day, with the mode of delivery via continuous subcutaneous delivery (e.g., through implantation of an osmotic pump). The simultaneous dosage of follistatin will be 50 μg/kg/day through subcutaneous delivery.
A formulation comprised of rH2 relaxin and recombinant human follistatin 315 is used to improve prognosis and decrease on-going damage caused from on-going hepatic damage in patients diagnosed with moderately severe NASH. The measured end points are indicative of a decrease of reduction of area of damage in the liver and increased liver enzyme function. […]
rH2 relaxin and follistatin administration are studied in a small patient population of NASH and an improvement in liver enzyme levels and liver function is measured as a primary end point. A decrease in on-going damage as determined by imaging techniques is also measured. […] In addition, elements such as diet and exercise are carefully monitored in the trial populations as these may impact on the improvement of the underlying metabolic disorder and potentially skew the results.

CCl4-exposed rats = settings: cited from earlier work
HSC = settings: cited from earlier work
liver = settings: cited from earlier work
tumor cell = settings: in vitro or in vivo studies; cited from earlier work
[1] = test system: rat model of hypertension; settings: cited from earlier work
[2] = test system: hepatic stellate cells (HSCs); settings: rat CCl4 model of liver damage; cited from earlier work
[3] = human, in vivo; cited from earlier work
lung fibroblasts = settings: in vitro; cited from earlier work
gene for TGF-β1 = settings: bleomycin-induced model of lung fibrosis, exogenous interferon-γ; cited from earlier work
[4] = test system: progressive pulmonary fibrosis; settings: patients with idiopathic pulmonary fibrosis, scleroderma or sarcoidosis resistant to three months of high-dose glucocorticoids; cited from earlier work

Substance: follistatin
- improvement versus vehicle (liver enzyme levels, liver function) (NASH): significant improvement over those treated with vehicle
- reduction in fibrosis (CCl4-exposed rats; CCl4-exposed rats treated with the peptide): 32%
- decrease of hepatocyte apoptosis (CCl4-exposed rats; CCl4-exposed rats, during treatment, effect maximal at week 4): 87%
- TGF-β-induced secretion of collagen (HSC): inhibit TGF-β-induced secretion of collagen from HSC
- liver weight (liver; after hepatic resection): significantly increases liver weight
- cell replication and liver size (liver; following partial hepatectomy): actively promote cell replication and increase liver size
- tumor cell growth (tumor cell): did not accelerate tumor cell growth

Substance: relaxin
- fibrosis associated with organ damage [1]: reversing cardiac and renal fibrosis
- improvement versus vehicle (liver enzyme levels, liver function) (NASH): significant improvement over those treated with vehicle
- collagen deposition by hepatic stellate cells [2]: inhibit collagen deposition by hepatic stellate cells
- adverse events [3]: few adverse events

Substance: interferon-γ
- proliferation of lung fibroblasts (lung fibroblasts): inhibits the proliferation of lung fibroblasts in a dose-dependent manner
- synthesis of protein in fibroblasts (lung fibroblasts): reduces the synthesis of protein in fibroblasts
- transcription of the gene for TGF-β1 (gene for TGF-β1): down-regulated

Substance: interferon γ-1b
- clinical efficacy in progressive pulmonary fibrosis [4]: effective
